Assay results: patent publication US11242346B2, “Mechanistic target of rapamycin signaling pathway inhibitors and therapeutic applications thereof” (SUZHOU KINTOR PHARMACEUTICALS, INC., priority 2016, dated 2022)
Values belong to the compound of their own block, whether it stands above or below them.

Tests used:
[1] = biological target: mTOR (FRAP1) (Homo sapiens, UniProt P42345); assay: SelectScreen Profiling, Z'-LYTE kinase assay, mTOR (FRAP1); type: biochemical; details: 0.1 μM compound, ATP at Km, read-out: mTOR inh% @0.1 μM
Description: (§1) Some of the example compounds were submitted to Life Technologies Corporation SelectScreen® Profiling Service to test their potency in inhibiting the kinase catalytic activities of mTOR, PI3Kα, VEGF2, FGFR1, HER1 (EGFR) and HER2. A concentration of ATP at the Km of the corresponding kinase was used for all assays. The mTOR (FRAP1), VEGF2, FGFR1, HER1 (EGFR) and HER2 assays used Z′-LYTE® technology. The PI3Kα assay used Adapta® technology. The symbol “inh %” as used herein generally refers to inhibition percentage.

[2] = test system: mammalian tumor cell lines such as PC-3, LNCAP, U87, Huh-7, HepG2 and MDA-MB-468; assay: Cell proliferation/survival MTT assay in tumor cell lines; type: cell-based; details: 5 days (120 h) culture; cell line not specified; read-out: IC50, inhibition of tumor cell growth (MTT)
Description: The cytotoxic or cytostatic activity of Formula I-III exemplary compounds was measured by establishing proliferating mammalian tumor cell lines such as PC-3, LNCAP, U87, Huh-7, HepG2 and MDA-MB-468 in a cell culture medium, adding a test compound, culturing the cells for a period of 5 days by measuring cell viability via MTT assays. Dose response data were obtained for each test compound and the degree of inhibition of tumor cell growth was expressed as an IC50 value. […] For example. For example, compounds of example 14, 15, 46,29, 45, 49, 122, 88, 54, 55, 58, 59, 63, 64, 66, 67, 68, 113, 86, 90.
PC-3 (or U87) cells were seeded in 96-well plates at low density (at 2,000 cells per well) in media supplemented with 10% FBS (growth media) and transferred to serum-free media (1% FBS) after 24 h. Designated concentrations of drug were added to each well. The cells were incubated for 120 h. At the end of drug exposure, 20 μL/well of MTT solution was added. After 4 h at 37° C. in a humidified 5% CO2 atmosphere, the absorbance at 490 nm was recorded by using a microplate reader. IC50 was calculated using GraphPad Prism version 5 for Windows. The curves were fit using a nonlinear regression model with a log (inhibitor) versus response formula.

[3] = Metabolic stability in human liver microsome (HLM); type: in vitro ADME; details: incubation with human liver microsome for 60 min
Description: (§2) Active mTOR inhibitors in enzymatic and/or cell-based assays herein were evaluated for pharmacokinetic properties. Preferable compounds are with pharmacokinetic properties of low clearance, long half-life and/or good oral bioavailability (Fpo). In vitro, selected example compounds were evaluated for metabolic stability by incubating with human liver microsome (HLM) for 60 min. Compounds that were metabolized slower (i.e. higher % remaining) are preferred. […] The more metabolic stable example compounds in the HLM assay were further evaluated for pharmacokinetic properties in vivo. In a representative experiment, selected example compounds were dosed to rats intravenously (IV, 5 mg/kg, 30% PEG400+30% PG+1% DMSO in saline) and orally (PO, 10 mg/kg, 2.4% DMSO+0.1% Tween80 in 0.5% CMC-Na), rat blood samples were taken at designed time points after dosing and analyzed for tested drug concentrations using LC-MS/MS. Pharmacokinetic parameters were derived from the time curve of drug concentrations.

[4] = biological target: PI3Kα (Homo sapiens, UniProt P42336); assay: SelectScreen Profiling, Adapta kinase assay, PI3Kα; type: biochemical; details: 0.1 μM compound, ATP at Km, read-out: PI3Kα inh % @0.1 μM
PI3Kα, sequence (P42336 whole entry): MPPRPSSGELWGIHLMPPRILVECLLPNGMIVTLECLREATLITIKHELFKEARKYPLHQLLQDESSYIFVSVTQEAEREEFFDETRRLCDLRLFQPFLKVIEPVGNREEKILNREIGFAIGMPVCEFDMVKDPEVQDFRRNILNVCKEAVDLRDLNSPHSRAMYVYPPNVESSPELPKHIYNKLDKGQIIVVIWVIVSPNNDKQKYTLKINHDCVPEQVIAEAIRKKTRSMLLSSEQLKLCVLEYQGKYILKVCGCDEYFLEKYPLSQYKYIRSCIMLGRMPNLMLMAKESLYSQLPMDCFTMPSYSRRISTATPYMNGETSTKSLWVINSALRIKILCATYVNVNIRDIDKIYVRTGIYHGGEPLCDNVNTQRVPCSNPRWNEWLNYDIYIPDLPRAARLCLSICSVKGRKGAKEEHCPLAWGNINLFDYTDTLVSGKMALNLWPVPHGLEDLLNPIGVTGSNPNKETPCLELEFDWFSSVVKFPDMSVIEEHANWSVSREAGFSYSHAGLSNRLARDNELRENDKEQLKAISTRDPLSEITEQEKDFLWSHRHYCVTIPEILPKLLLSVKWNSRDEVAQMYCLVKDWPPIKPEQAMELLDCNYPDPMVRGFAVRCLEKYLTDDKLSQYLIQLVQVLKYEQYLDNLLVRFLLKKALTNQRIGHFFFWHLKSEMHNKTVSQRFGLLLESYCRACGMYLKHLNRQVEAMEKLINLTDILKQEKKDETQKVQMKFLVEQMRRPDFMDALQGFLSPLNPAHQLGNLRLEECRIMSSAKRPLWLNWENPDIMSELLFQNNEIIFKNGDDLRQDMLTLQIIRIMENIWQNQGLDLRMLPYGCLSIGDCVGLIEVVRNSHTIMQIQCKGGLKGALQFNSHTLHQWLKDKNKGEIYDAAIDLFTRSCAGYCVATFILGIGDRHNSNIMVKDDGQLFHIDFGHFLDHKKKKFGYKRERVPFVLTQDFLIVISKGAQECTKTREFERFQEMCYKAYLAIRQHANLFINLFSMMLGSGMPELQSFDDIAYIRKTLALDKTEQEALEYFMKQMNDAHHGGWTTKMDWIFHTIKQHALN
PI3Kα, sequence (P27986 whole entry partner): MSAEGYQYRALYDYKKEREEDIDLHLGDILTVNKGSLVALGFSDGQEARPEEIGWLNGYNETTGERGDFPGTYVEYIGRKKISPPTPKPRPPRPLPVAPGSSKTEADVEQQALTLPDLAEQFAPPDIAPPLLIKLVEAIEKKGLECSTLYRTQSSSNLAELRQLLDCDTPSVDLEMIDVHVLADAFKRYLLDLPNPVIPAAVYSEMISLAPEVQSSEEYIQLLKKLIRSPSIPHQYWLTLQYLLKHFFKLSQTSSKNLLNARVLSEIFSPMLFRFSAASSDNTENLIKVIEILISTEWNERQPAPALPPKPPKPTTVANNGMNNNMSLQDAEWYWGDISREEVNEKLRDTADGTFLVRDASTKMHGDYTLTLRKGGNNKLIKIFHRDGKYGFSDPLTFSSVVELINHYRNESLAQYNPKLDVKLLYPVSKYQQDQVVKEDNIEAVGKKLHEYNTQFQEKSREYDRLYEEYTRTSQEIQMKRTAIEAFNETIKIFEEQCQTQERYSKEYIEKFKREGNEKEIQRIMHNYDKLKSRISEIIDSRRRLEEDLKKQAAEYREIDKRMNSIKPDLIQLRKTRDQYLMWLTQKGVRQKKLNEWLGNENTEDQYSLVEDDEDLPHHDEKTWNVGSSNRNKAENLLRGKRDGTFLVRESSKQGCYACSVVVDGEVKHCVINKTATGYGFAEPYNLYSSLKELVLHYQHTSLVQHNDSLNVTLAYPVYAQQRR

[5] = Rat pharmacokinetic study (IV and PO); type: in vivo; details: for AUC(0-t) / Cmax / MRT / clearance / half-life / Tmax / bioavailability: blood; for bioavailability: PO 10 mg/kg vs IV 5 mg/kg, read-out: Fpo (oral bioavailability)
Description: as §2

[6] = biological target: VEGF2 (Homo sapiens, UniProt P35968); assay: SelectScreen Profiling, Z'-LYTE kinase assay, VEGF2; type: biochemical; details: 1 μM compound, ATP at Km, read-out: VEGF 2 inh % @1 μM
Description: as §1

[7] = biological target: FGFR1 (Homo sapiens, UniProt P11362); assay: SelectScreen Profiling, Z'-LYTE kinase assay, FGFR1; type: biochemical; details: 1 μM compound, ATP at Km, read-out: FGFR 1 inh % @1 μM
FGFR1, sequence (P11362 22-822): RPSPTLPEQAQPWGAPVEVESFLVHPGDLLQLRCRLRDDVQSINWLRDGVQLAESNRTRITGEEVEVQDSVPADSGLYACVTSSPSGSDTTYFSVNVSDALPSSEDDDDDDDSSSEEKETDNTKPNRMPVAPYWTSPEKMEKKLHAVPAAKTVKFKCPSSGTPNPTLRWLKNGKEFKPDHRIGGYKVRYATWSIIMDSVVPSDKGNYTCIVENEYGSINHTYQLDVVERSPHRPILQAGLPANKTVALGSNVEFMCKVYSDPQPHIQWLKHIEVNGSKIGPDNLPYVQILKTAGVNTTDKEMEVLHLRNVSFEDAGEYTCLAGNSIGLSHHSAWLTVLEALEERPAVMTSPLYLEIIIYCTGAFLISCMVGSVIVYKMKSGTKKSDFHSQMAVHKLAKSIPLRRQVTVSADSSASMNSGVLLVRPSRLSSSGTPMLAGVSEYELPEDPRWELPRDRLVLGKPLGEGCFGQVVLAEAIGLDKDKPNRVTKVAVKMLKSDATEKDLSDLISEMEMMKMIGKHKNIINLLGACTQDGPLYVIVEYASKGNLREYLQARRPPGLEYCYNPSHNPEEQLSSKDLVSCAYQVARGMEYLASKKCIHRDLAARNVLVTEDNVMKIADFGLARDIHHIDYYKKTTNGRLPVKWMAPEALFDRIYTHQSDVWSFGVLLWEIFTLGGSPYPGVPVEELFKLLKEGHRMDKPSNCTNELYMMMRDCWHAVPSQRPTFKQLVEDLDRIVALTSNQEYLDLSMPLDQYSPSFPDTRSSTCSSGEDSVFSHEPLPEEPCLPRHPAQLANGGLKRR
Description: as §1

[8] = biological target: HER1 (EGFR) (Homo sapiens, UniProt P00533); assay: SelectScreen Profiling, Z'-LYTE kinase assay, HER1 (EGFR); type: biochemical; details: 1 μM compound, ATP at Km, read-out: HER1 inh % @1 μM
HER1 (EGFR), sequence (P00533 25-1210): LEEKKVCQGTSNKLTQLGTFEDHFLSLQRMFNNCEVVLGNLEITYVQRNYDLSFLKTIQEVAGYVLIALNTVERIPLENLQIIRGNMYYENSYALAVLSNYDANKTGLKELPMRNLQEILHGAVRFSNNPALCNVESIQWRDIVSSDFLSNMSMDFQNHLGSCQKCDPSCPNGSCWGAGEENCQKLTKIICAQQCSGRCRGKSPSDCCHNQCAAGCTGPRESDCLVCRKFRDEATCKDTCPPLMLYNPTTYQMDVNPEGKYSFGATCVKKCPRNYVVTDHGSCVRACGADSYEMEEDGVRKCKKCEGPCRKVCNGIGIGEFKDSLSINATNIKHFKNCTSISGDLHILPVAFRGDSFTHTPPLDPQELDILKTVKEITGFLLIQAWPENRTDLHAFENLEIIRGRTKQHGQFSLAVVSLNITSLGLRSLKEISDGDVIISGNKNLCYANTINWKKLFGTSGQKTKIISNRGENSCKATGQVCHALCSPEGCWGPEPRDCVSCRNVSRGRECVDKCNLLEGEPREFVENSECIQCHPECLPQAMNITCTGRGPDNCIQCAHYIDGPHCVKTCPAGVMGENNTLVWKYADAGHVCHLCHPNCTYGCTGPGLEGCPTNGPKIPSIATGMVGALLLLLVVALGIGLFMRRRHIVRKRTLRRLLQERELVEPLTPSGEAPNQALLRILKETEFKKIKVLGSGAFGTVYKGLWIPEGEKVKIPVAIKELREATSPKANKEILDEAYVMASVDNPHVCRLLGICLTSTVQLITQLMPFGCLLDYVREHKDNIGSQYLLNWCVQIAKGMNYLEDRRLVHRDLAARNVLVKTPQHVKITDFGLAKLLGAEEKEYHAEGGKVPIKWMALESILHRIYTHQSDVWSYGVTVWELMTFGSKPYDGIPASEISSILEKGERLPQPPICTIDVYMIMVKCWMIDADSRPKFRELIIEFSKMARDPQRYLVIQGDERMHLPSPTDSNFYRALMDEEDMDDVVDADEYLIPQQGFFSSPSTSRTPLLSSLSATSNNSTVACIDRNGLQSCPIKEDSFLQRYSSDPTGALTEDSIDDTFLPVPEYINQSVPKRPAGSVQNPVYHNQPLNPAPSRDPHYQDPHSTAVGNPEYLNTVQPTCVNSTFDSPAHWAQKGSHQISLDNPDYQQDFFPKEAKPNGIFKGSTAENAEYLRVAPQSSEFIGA
Description: as §1

[9] = biological target: HER2 (Homo sapiens, UniProt P04626); assay: SelectScreen Profiling, Z'-LYTE kinase assay, HER2; type: biochemical; details: 1 μM compound, ATP at Km, read-out: HER2 inh % @1 μM
HER2, sequence (P04626 23-1255): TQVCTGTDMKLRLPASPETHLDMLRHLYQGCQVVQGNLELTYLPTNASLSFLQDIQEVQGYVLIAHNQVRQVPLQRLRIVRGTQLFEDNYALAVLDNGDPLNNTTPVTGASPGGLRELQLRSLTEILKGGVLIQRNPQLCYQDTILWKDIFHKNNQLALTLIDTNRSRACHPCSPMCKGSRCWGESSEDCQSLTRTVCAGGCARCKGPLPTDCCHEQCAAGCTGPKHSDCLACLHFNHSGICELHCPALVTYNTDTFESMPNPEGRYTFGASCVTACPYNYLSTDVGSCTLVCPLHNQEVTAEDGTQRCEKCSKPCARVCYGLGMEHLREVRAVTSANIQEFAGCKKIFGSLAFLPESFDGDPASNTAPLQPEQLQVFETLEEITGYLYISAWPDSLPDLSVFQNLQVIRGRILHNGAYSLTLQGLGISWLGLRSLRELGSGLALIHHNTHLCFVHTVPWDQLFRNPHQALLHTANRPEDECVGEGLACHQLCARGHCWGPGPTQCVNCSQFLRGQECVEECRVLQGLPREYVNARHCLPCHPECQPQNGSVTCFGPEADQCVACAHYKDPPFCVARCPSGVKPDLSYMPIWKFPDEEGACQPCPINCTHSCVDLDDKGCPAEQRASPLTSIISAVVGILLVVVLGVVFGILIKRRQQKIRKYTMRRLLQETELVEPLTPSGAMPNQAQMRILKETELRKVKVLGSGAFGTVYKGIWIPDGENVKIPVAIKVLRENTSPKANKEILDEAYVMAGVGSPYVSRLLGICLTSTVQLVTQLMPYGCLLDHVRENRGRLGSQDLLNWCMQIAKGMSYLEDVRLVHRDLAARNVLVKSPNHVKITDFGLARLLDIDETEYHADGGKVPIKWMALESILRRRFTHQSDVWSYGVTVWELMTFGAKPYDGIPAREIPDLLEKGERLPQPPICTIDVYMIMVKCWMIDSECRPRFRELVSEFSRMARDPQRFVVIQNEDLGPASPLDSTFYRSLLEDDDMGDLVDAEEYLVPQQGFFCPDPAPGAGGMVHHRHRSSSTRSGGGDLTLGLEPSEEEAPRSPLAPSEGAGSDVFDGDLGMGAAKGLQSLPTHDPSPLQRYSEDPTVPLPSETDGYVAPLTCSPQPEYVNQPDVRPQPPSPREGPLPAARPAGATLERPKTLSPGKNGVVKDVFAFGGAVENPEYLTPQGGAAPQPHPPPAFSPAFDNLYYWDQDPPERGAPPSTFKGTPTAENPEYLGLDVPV
Description: as §1

- inhibition at 0.1 µM [1]: 71%
SMILES: CC(C)(O)c1ccc2c(N3CCOCC3)nc(-c3ccc(NC(=O)Nc4cccnc4)cc3)nn12 [Example 63]
- IC50 [2]: < 0.5 µM

- inhibition at 0.1 µM [1]: 62%
- metabolic stability in HLM [3]: metabolically stable
SMILES: CN(C)C1CCN(C(=O)c2ccc(NC(=O)Nc3ccc(-c4nc(N5CCOCC5)c5ccc(C(F)(F)F)n5n4)cc3)cc2)CC1 [Example 64]
- IC50 [2]: < 0.5 µM

- inhibition at 0.1 µM [1]: 63%
- inhibition at 0.1 µM [4]: 19%
SMILES: CN1CCN(C(=O)c2ccc(NC(=O)Nc3ccc(-c4nc(N5CCOCC5)c5ccc(C(F)(F)F)n5n4)cc3)cc2)CC1 [Example 65]

- inhibition at 0.1 µM [1]: 87%
- metabolic stability in HLM [3]: metabolically stable
SMILES: O=C(Nc1ccc(C(=O)N2CC[C@@H](O)C2)cc1)Nc1ccc(-c2nc(N3CCOCC3)c3cccn3n2)cc1 [Example 67]
- IC50 [2]: < 0.5 µM

- inhibition at 0.1 µM [1]: 86%
SMILES: O=C(Nc1ccc(C(=O)N2CC[C@H](O)C2)cc1)Nc1ccc(-c2nc(N3CCOCC3)c3cccn3n2)cc1 [Example 68]
- IC50 [2]: < 0.5 µM

- inhibition at 0.1 µM [1]: 82%
SMILES: CN(C)C1CN(C(=O)c2ccc(NC(=O)Nc3ccc(-c4nc(N5CCOCC5)c5cccn5n4)cc3)cc2)C1 [Example 86]
- IC50 [2]: < 0.5 µM

SMILES: C[C@@H]1COCCN1c1nc(-c2ccc(NC(=O)Nc3ccc(C(=O)N4CC[C@@H](O)C4)cc3)cc2)nn2cccc12 [Example 88]
- IC50 [2]: < 0.5 µM

- metabolic stability in HLM [3]: metabolically stable
SMILES: C[C@@H]1COCCN1c1nc(-c2ccc(NC(=O)Nc3ccc(C(=O)N4CC[C@H](O)C4)cc3)cc2)nn2cccc12 [Example 89]

SMILES: CN(C)C1CCN(C(=O)c2ccc(NC(=O)Nc3ccc(-c4nc(N5CCOCC5)c5ccc(C(C)(C)O)n5n4)cc3)cc2)CC1 [Example 90]
- IC50 [2]: < 0.5 µM

- metabolic stability in HLM [3]: metabolically stable
SMILES: O=C(Nc1ccc(-c2nc(N3CCOCC3)c3cccn3n2)cc1)Nc1ccc(CO)nc1 [Example 96]

- metabolic stability in HLM [3]: metabolically stable
- CL ([5]; PO 10 mg/kg): 0.247 L/h/kg
- AUC(0-t) ([5]; IV 5 mg/kg): 41.5 µg·h/mL
- Cmax ([5]; IV 5 mg/kg): 21.2 µg/mL
- MRT ([5]; IV 5 mg/kg): 1.67 h
- clearance ([5]; IV 5 mg/kg): 0.122 L/h/kg
- half-life ([5]; IV 5 mg/kg): 1.42 h
- AUC(0-t) ([5]; PO 10 mg/kg): 73.4 µg·h/mL
- Cmax ([5]; PO 10 mg/kg): 9.99 µg/mL
- MRT ([5]; PO 10 mg/kg): 5.68 h
- Tmax ([5]; PO 10 mg/kg): 2.5 h
- half-life ([5]; PO 10 mg/kg): 3.26 h
- bioavailability [5]: 89%
SMILES: S=C(Nc1ccc(-c2nc(N3CCOCC3)c3cccn3n2)cc1)Nc1cccnc1 [Example 106]

SMILES: OCCNC(=S)Nc1ccc(-c2nc(N3CCOCC3)c3cccn3n2)cc1 [Example 113]
- IC50 [2]: < 0.5 µM

- metabolic stability in HLM [3]: metabolically stable
- CL ([5]; PO 10 mg/kg): 6.772 L/h/kg
- AUC(0-t) ([5]; IV 5 mg/kg): 3.42 µg·h/mL
- Cmax ([5]; IV 5 mg/kg): 3.38 µg/mL
- MRT ([5]; IV 5 mg/kg): 1.3 h
- clearance ([5]; IV 5 mg/kg): 1.46 L/h/kg
- half-life ([5]; IV 5 mg/kg): 1.47 h
- AUC(0-t) ([5]; PO 10 mg/kg): 1.4 µg·h/mL
- Cmax ([5]; PO 10 mg/kg): 0.296 µg/mL
- MRT ([5]; PO 10 mg/kg): 5.11 h
- Tmax ([5]; PO 10 mg/kg): 0.417 h
- half-life ([5]; PO 10 mg/kg): 3.29 h
- bioavailability [5]: 22%
SMILES: O=C(NCCO)Nc1ccc(-c2nc(N3C[C@H]4CC[C@@H](C3)O4)c3cccn3n2)cc1 [Example 127]

- CL ([5]; PO 10 mg/kg): 1.503 L/h/kg
- AUC(0-t) ([5]; PO 10 mg/kg): 7.29 µg·h/mL
- Cmax ([5]; PO 10 mg/kg): 1.52 µg/mL
- MRT ([5]; PO 10 mg/kg): 3.45 h
- Tmax ([5]; PO 10 mg/kg): 1.67 h
- half-life ([5]; PO 10 mg/kg): 1.9 h
- bioavailability [5]: 22%
SMILES: CC(C)(C)C(=O)OCCNC(=O)Nc1ccc(-c2nc(N3CCOCC3)c3cccn3n2)cc1 [Example 128]

- inhibition at 0.1 µM [1]: 90%
- inhibition at 1 µM [6]: 9%
- inhibition at 1 µM [7]: 4%
- inhibition at 1 µM [8]: 1%
- inhibition at 1 µM [9]: 5%
SMILES: CC(C)(C)C(=O)OCCNC(=O)Nc1ccc(-c2nc(N3C[C@H]4CC[C@@H](C3)O4)c3cccn3n2)cc1 [Example 133]

- inhibition at 0.1 µM [1]: 6%
SMILES: CS(=O)(=O)N1CCN(Cc2cc3nc(-c4cccc5[nH]ncc45)nc(N4CCOCC4)c3s2)CC1 [GDC0941, reference compound]
